Test results: PubChem BioAssay AID1508612

Assay: passive permeability, PAMPA, ADME assay (AID 1508612)
Details: pH 7.4, 30.0 min, 50.0 µM

Papp	Compound
16.2 ×10⁻⁶ cm/s	COC(=O)[C@]12CCC(C)(C)C[C@@H]1[C@@H]1C(=O)C=C3[C@@]4(C)C=C(C#N)C(=O)C(C)(C)[C@@H]4CC[C@@]3(C)[C@]1(C)CC2
350 ×10⁻⁶ cm/s	O=C(NCc1ccccc1)c1nc(S(=O)(=O)Cc2ccc(F)cc2)ncc1Cl
11.5 ×10⁻⁶ cm/s	Cc1ccc(/C=C/c2nc3ccccc3n2S(=O)(=O)c2cccc(Cl)c2)cc1
540 ×10⁻⁶ cm/s	Cc1c(O)ccc2c1OC(C)(C)CC2
1.15 ×10⁻⁶ cm/s	O=S(=O)(Nc1nccs1)c1ccc(NCc2cccc(O)c2)cc1
395 ×10⁻⁶ cm/s	O=[S+]([O-])(Nc1nccs1)c1ccc(NCc2cccc(Cl)c2)cc1
344 ×10⁻⁶ cm/s	O=C(Nc1ncccc1O)c1ccc(S(=O)(=O)Nc2ccccc2)cc1
> 1000 ×10⁻⁶ cm/s	COc1ccccc1-c1nc(NCc2cnc(C)cn2)c2ccccc2n1
> 1000 ×10⁻⁶ cm/s	COc1ccc(OC)c(-c2cc(C(=O)N3CCN(c4ncccn4)CC3)c3ccccc3n2)c1
> 1000 ×10⁻⁶ cm/s	FC(F)(F)c1cccc(N2CCN(C(=S)Nc3ccccn3)CC2)c1
961 ×10⁻⁶ cm/s	OCC(O)CCO/N=C1/C(c2c(O)[nH]c3ccccc23)=Nc2ccccc21 (stereo not drawn)
126 ×10⁻⁶ cm/s	S=c1[nH]c2ccccc2n1CCc1ccccc1
651 ×10⁻⁶ cm/s	O=C1CCCC2=C1C(c1[nH]ncc1Cl)N=C(Nc1nc3ccc(Cl)cc3o1)N2 (stereo not drawn)
24.5 ×10⁻⁶ cm/s	Cc1cc(-c2nnc3n2CCCCC3)c(C)n1-c1ccncc1
9.97 ×10⁻⁶ cm/s	C[C@@]1(O)[C@H](O)[C@@H](CO)O[C@H]1n1ccc(N)nc1=O
> 1000 ×10⁻⁶ cm/s	Cc1ccnc(NC(=S)N2CCCC(Nc3cccc(C(F)(F)F)c3)C2)c1 (stereo not drawn)
1.5 ×10⁻⁶ cm/s	O=C(Cc1ccc(Cl)c(Cl)c1)Nc1ccc(S(=O)(=O)Nc2cncnc2)cc1
13.2 ×10⁻⁶ cm/s	Cc1ccc(-n2ncc3c(Nc4cccc(C(=O)O)c4)ncnc32)cc1
> 1000 ×10⁻⁶ cm/s	CCOc1ccc(-c2csc(N3CCC(C(N)=O)CC3)n2)cc1
779 ×10⁻⁶ cm/s	CC(=O)c1c(C)n(-c2ccccc2)c2ccc(O)cc12
587 ×10⁻⁶ cm/s	Cc1ccnc(NC(=S)N2CCN(c3ccc(C(F)(F)F)cc3)CC2)c1

Papp	Compound
627 ×10⁻⁶ cm/s	COc1ccc(NC(C)=O)cc1S(=O)(=O)Nc1ccc(Br)cc1
641 ×10⁻⁶ cm/s	CC(Nc1ccc([S+](=O)([O-])Nc2nccs2)cc1)c1ccccc1 (stereo not drawn)
22.9 ×10⁻⁶ cm/s	N#Cc1nc(-c2cccc3ccccc23)oc1NCc1ccccc1
> 1000 ×10⁻⁶ cm/s	CC(=O)c1c(C)[nH]c(C(=O)Nc2cccc(S(=O)(=O)N3CCCCC3)c2)c1C
261 ×10⁻⁶ cm/s	Cc1cccc(CS(=O)(=O)c2ncc(Cl)c(C(=O)Nc3nc4ccc(F)cc4s3)n2)c1
842 ×10⁻⁶ cm/s	Cc1ccc(-n2nc3c(=O)n(CCCC(=O)NCc4ccc(F)cc4)nc(C)c3c2C)cc1
> 1000 ×10⁻⁶ cm/s	O=C(Nc1ccccc1C(=O)Nc1ccccc1C(=O)NCc1ccco1)c1ccco1
726 ×10⁻⁶ cm/s	Cc1ccnc(NC(=S)N2CCN(c3ccccc3C(F)(F)F)CC2)c1
254 ×10⁻⁶ cm/s	NC(=O)C1CCN(c2ncnc(-c3ccc4c(c3)OCCCO4)n2)CC1
282 ×10⁻⁶ cm/s	Cc1cc(NS(=O)(=O)c2ccc(NC(=O)c3oc4ccccc4c3C)cc2)nc(C)n1
961 ×10⁻⁶ cm/s	COCCNC(=O)[C@H]1C[C@H](Oc2ccccc2)CN1Cc1ccc2[nH]ccc2c1
> 1000 ×10⁻⁶ cm/s	Cc1cc(C)nc(NC(=S)N2CCN(c3ccc(F)cc3F)CC2)c1
205 ×10⁻⁶ cm/s	O=S(=O)(c1ccccc1)N1CCN(c2nc(-c3ccc(Br)cc3)cs2)CC1
331 ×10⁻⁶ cm/s	COc1ccc(-n2nc(C3CCN(C(=O)c4ccccc4)CC3)[nH]c2=O)cc1
12.1 ×10⁻⁶ cm/s	CCn1cc(C(=O)O)c(=O)c2cnc(N3CCN(C(=S)Nc4ccccc4)CC3)nc21
> 1000 ×10⁻⁶ cm/s	Cn1c(C(=O)NCCc2ccccn2)nc2nc(-c3ccccc3)c(Cl)cc21
> 1000 ×10⁻⁶ cm/s	CCOc1ccc(CCNC(=O)c2cc3sccc3n2CCN2CCN(C)CC2)cc1OCC
> 1000 ×10⁻⁶ cm/s	c1ccc(Nc2cc(-c3ccoc3)ncn2)cc1
371 ×10⁻⁶ cm/s	COc1ccc(NC(=O)C2=C(C)NC(Nc3nc4ccccc4o3)=NC2c2ccccc2Br)cc1 (stereo not drawn)
27.9 ×10⁻⁶ cm/s	c1coc(-c2nc3ccncc3[nH]2)c1
106 ×10⁻⁶ cm/s	CC(C)(C)n1cnc2cc(C(=O)N3CCCCC3)ccc21

Compound	Papp
Ic1ccccc1CNC1C2CCN(CC2)C1C(c1ccccc1)c1ccccc1 (stereo not drawn)	> 1000 ×10⁻⁶ cm/s
